Legend:
Type in all cases: in vivo
[1] = system: soybean cultivar Primus; test: Soybean pot experiment; conditions: low phosphate, 4 weeks
Procedure: (§1) All Arabidopsis plant experiments were performed using the Arabidopsis thaliana Columbia-0 background. The Arabidopsis pSPX1::GUS line is described in the […] 2008, 54: 965-975. For rice, the cultivar Nipponbare was used. For maize, the cultivars DKC 2931 and 8104 were used for regular pot experiments and sand-based pot experiments, respectively. For soybean, the cultivar Primus was used. […] The medium was solidified due to the addition of 0.6% Gelrite, unless stated otherwise. […]
Regular Arabidopsis, soybean and maize pot experiments used an unfertilized potting soil, which was supplemented at the start of the experiment with 50 ml H2O containing 0.25 g/l NH4NO3 and 0.44 g/l (high phosphate) or no (maize and soybean) or 0.11 g/l KH2PO (Arabidopsis) for low phosphate conditions. […] Compound concentration was 10 μM, calculated based on the total water content after watering, and was added at the start of the experiment (Arabidopsis) or once a week (maize). […] All parameters in the sand experiment, except the rate of leaf 4 (measured the first 4 days after emergence), were measured 19 days after sowing. Measurements in the pot experiments with potting soil were done after 4 weeks of growth, except for leaf 5, which was measured at 26 days. […]

[2] = system: maize cultivar DKC 2931; test: Regular maize pot experiment (potting soil); conditions: low phosphate, 10 μM compound
Procedure: (§2) All Arabidopsis plant experiments were performed using the Arabidopsis thaliana Columbia-0 background. The Arabidopsis pSPX1::GUS line is described in the […] 2008, 54: 965-975. For rice, the cultivar Nipponbare was used. For maize, the cultivars DKC 2931 and 8104 were used for regular pot experiments and sand-based pot experiments, respectively. For soybean, the cultivar Primus was used. […] The medium was solidified due to the addition of 0.6% Gelrite, unless stated otherwise. In case of vertical plates (root length and root hair measurements), the medium was supplied with 0.5% of sucrose and 1 μM (low phosphate, 1 μM KH2PO4, 9.9 mM KCl), 10 μM (low phosphate 10 μM KH2PO4, 9.9 mM KCl) or 1.25 mM KH2PO4 (high phosphate). Arabidopsis seeds were stratified for 2 days at 4° C. before germination. Seedlings were germinated in climate-controlled growth chambers at 22° C. under continuous light ([…] m^−2 s^−1). Husked rice seeds were germinated on wetted Whatman paper for 2 days at 37° C. and then transferred to Sterivent boxes or square Petri dishes with solid medium. Maize and soybean seeds were wetted 24 hours at room temperature prior to sowing in pots.
Regular Arabidopsis, soybean and maize pot experiments used an unfertilized potting soil, which was supplemented at the start of the experiment with 50 ml H2O containing 0.25 g/l NH4NO3 and 0.44 g/l (high phosphate) or no (maize and soybean) or 0.11 g/l KH2PO (Arabidopsis) for low phosphate conditions. For the sand-based maize pot experiment, sand was supplemented with 50 ml H2O containing 0.25 g/l NH4NO3 and 0.38 g/l (high phosphate) or 0.02 g/l (low phosphate) KH2PO4. Potassium was balanced via addition of KCl. Compound concentration was 10 μM, calculated based on the total water content after watering, and was added at the start of the experiment (Arabidopsis) or once a week (maize). Indexed chlorophyll contents were received via a SPAD 502 Plus Chlorophyll Meter. All parameters in the sand experiment, except the rate of leaf 4 (measured the first 4 days after emergence), were measured 19 days after sowing. Measurements in the pot experiments with potting soil were done after 4 weeks of growth, except for leaf 5, which was measured at 26 days. The long term maize pot experiment was performed on the automated Phenovision platform (see Mertens et al, 2021, https://doi.org/10.3389/fpls.2021.640914) with maize cultivars B104 and DKC2931. End point measurements occurred after 90 days (B104) or 70 days (DKC2931). Plants were grown on an unfertilized potting soil, which was fertilized bi-weekly with 50 mL modified Hoagland solution (2.5× concentrated; but with 0.25 mM KH2PO4).

[3] = system: rice cultivar Nipponbare; test: Rice plate experiment (plant height); conditions: low phosphate 0.001 mM, 10 μM compound, 11 days after germination
Procedure: as §1
Arabidopsis primary root growth experiments were done on MS1/2 on vertical standing plates and roots were measured 11 days after germination. Roots were imaged using a flatbed scanner (EPSON Expression 11000XL) and root length was measured using ImageJ software. Arabidopsis shoot biomass was determined in 11 days after germination and growth on vertical standing plates with modMS. Arabidopsis leaf area was measured 21 days after germination on horizontal plates with modMS medium. Plates were scanned from the top using a flatbed scanner (EPSON Expression 11000XL) and the visible leaf area was measured using ImageJ software. […] Plant height was measured 11 days after germination. […] Plant height was measured 13 days after germination. […]

[4] = system: Arabidopsis thaliana Columbia-0; test: Arabidopsis 96-well plate anthocyanin quantification
Procedure: Col-0 ecotype Arabidopsis seeds were sown in 96-well plates containing 150 μl of low phosphate modMS liquid medium containing 1% of sucrose. Compounds was added in 50 μM concentration (1% DMSO). Eight plants per repeat were collected 7 days after germination and put into a fresh Eppendorf. Extraction and quantification of anthocyanin levels was carried out according to The Plant cell 2013, 25:1641-1656. Anthocyanin levels were quantified by measuring absorption at 530 and 657 nm using a spectrophotometer and normalized to fresh weight input, and expressed relative to the low phosphate control. For pot experiments, the same procedure was followed with one 4-week old plant per sample.

[5] = system: Arabidopsis thaliana Columbia-0; test: Arabidopsis horizontal plate leaf area assay
Procedure: as §2
Arabidopsis primary root growth experiments were done on MS1/2 on vertical standing plates and roots were measured 11 days after germination. Roots were imaged using a flatbed scanner (EPSON Expression 11000XL) and root length was measured using ImageJ software. Arabidopsis shoot biomass was determined in 11 days after germination and growth on vertical standing plates with modMS. Arabidopsis leaf area was measured 21 days after germination on horizontal plates with modMS medium. Plates were scanned from the top using a flatbed scanner (EPSON Expression 11000XL) and the visible leaf area was measured using ImageJ software. Rice plate experiments used vertically standing Petri dishes containing MS1/2 medium (low phosphate—0.001 mM) solidified with 0.8% washed agar. Plant height was measured 11 days after germination. Rice box experiments used modMS medium and a low phosphate condition of 0.025 mM phosphate. Plant height was measured 13 days after germination. All growth experiments occurred with 10 μM of compound and in low phosphate conditions, unless stated otherwise. Controls always received the same DMSO concentration.

[6] = system: Arabidopsis thaliana Columbia-0; test: Arabidopsis vertical plate growth assay (primary root length, shoot biomass); conditions: low phosphate
Procedure: as §2
Arabidopsis primary root growth experiments were done on MS1/2 on vertical standing plates and roots were measured 11 days after germination. Roots were imaged using a flatbed scanner (EPSON Expression 11000XL) and root length was measured using ImageJ software. Arabidopsis shoot biomass was determined in 11 days after germination and growth on vertical standing plates with modMS. Arabidopsis leaf area was measured 21 days after germination on horizontal plates with modMS medium. Plates were scanned from the top using a flatbed scanner (EPSON Expression 11000XL) and the visible leaf area was measured using ImageJ software. Rice plate experiments used vertically standing Petri dishes containing MS1/2 medium (low phosphate—0.001 mM) solidified with 0.8% washed agar. Plant height was measured 11 days after germination. […] Plant height was measured 13 days after germination. […]

[7] = Arabidopsis vertical plate, 10 μM compound, 11 days after germination

CCN(CCCNc1ncnc2nc(N)ccc12)c1ccccc1 [Example 1]
Biomass [1]: 4.4 g | Plant height [1]: 63 cm | Plant height ([2]; 4 weeks): 59 cm | Shoot weight ([2]; 4 weeks): 4 g | Leaf 5 ([2]; 26 days): 43 cm | Plant height [3]: 15 cm | Anthocyanin level in the leaves (in words) ([4]; 96-well plate assay): reduced | Relative anthocyanin level ([4]; Arabidopsis 96-well plate, low phosphate, 50 μM compound, 7 days after germination, relative to control (=1)): 0.6 | Leaf area ([5]; Arabidopsis horizontal plate, low phosphate, 10 μM compound, 21 days after germination (Table 1)): 94 mm^2 | Leaf area in suboptimal phosphate conditions ([5]; Arabidopsis horizontal plate, suboptimal phosphate (600 μM), 10 μM compound): 120 mm^2 | Average leaf area ([5]; Arabidopsis horizontal plates (Table 4), control without compound 63): 66 mm^2 | Primary root length compared with the control without compound (in words) ([6]; 10 μM, 11-day-old Arabidopsis): almost double the length of the control | Primary root length [6, 7]: 3.4 cm | Shoot biomass [6, 7]: 21 mg
